Patent US20210122730A1, “GLUCOCORTICOID RECEPTOR MODULATORS” (ORIC Pharmaceuticals, Inc., priority 2017, published 2021)

Target: T1, GR (Homo sapiens, UniProt P04150)
T1 construct: expressed in transfected cells; host or cells: CHO-K1
T1 sequence (P04150 1-777): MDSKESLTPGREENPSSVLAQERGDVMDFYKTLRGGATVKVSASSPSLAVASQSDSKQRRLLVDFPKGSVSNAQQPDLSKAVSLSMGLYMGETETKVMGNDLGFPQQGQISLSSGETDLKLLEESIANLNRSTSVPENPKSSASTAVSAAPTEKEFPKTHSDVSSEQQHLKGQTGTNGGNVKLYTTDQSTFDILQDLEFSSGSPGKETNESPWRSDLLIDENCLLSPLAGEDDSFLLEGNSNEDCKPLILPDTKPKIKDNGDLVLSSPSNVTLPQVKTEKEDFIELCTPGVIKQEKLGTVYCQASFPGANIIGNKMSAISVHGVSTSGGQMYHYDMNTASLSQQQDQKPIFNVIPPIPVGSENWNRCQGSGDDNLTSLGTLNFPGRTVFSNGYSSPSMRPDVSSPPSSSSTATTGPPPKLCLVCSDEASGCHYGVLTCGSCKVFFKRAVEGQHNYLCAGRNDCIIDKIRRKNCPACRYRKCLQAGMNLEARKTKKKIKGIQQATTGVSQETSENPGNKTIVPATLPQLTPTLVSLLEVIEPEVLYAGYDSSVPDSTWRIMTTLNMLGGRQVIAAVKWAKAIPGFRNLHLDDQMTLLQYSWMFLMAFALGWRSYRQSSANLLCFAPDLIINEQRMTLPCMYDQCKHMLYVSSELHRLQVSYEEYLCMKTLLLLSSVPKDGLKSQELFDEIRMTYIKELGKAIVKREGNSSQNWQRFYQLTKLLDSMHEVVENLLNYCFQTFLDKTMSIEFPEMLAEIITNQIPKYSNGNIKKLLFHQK
Experiment: In Vitro GR Luciferase Reporter Assay (antagonist mode, CHO-K1-GR-MMTV-Luc reporter cells)
Type: cell-based
Settings: antagonist assay with 10 nM Dexamethasone, 18-24 hours
Outline: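 Antagonist mode: compounds (8 serial 1:5 dilutions) added to GR-MMTV-luciferase CHO-K1 reporter cells co-exposed to 10 nM dexamethasone final, in phenol red-free DMEM plus 10% CSS. After roughly 18-24 h at 37° C, OneGlo luminescence read and IC50 calculated.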

| IC50 [nM] | Structure (SMILES) |
| --- | --- |
| ≤ 100 | O=C(c1ccccn1)[C@]12Cc3cnn(-c4ccc(F)cc4)c3C=C1CC[C@@H](S(=O)(=O)c1ccc(F)c(F)c1)C2 [Example 16, ((4aS,6R)-6-((3,4-difluorophenyl)sulfonyl)-1-(4-fluorophenyl)-1,4,5,6,7,8-hexahydro-4aH-benzo[f]indazol-4a-yl)(pyridin-2-yl)methanone] |
| 100 to 1000 | O=C(c1ccccn1)[C@]12Cc3cnn(-c4ccc(F)cc4)c3C=C1CC[C@@H](S(=O)(=O)c1ccc(F)cc1)C2 [Example 29, ((4aS,6R)-1-(4-fluorophenyl)-6-((4-fluorophenyl)sulfonyl)-1,4,5,6,7,8-hexahydro-4aH-benzo[f]indazol-4a-yl)(pyridin-2-yl)methanone] |
| ≤ 100 | O=C(c1cc(C(F)(F)F)ccn1)[C@]12Cc3cnn(-c4ccc(F)cc4)c3C=C1CC[C@H](S(=O)(=O)c1ccc(F)c(F)c1)C2 [Example 14, ((4aS,6S)-6-((3,4-difluorophenyl)sulfonyl)-1-(4-fluorophenyl)-1,4,5,6,7,8-hexahydro-4aH-benzo[f]indazol-4a-yl)(4-(trifluoromethyl)pyridin-2-yl)methanone] |
| ≤ 100 | O=C(c1cc(C(F)(F)F)ccn1)[C@]12Cc3cnn(-c4ccc(F)cc4)c3C=C1CC[C@H](S(=O)(=O)c1cnn(C3CC3)c1)C2 [Example 71, ((4aS,6S)-6-((1-cyclopropyl-1H-pyrazol-4-yl)sulfonyl)-1-(4-fluorophenyl)-1,4,5,6,7,8-hexahydro-4aH-benzo[f]indazol-4a-yl)(4-(trifluoromethyl)pyridin-2-yl)methanone] |
| ≤ 100 | Cc1ccnc(C(=O)[C@]23Cc4cnn(-c5ccc(F)cc5)c4C=C2CC[C@H](S(=O)(=O)c2ccccn2)C3)c1 [Example 34, ((4aS,6S)-1-(4-fluorophenyl)-6-(pyridin-2-ylsulfonyl)-1,4,5,6,7,8-hexahydro-4aH-benzo[f]indazol-4a-yl)(4-methylpyridin-2-yl)methanone] |
| ≤ 100 | CCN([C@H]1CCC2=Cc3c(cnn3-c3ccc(F)cc3)C[C@]2(C(=O)c2ccc(C3CC3)cn2)C1)S(=O)(=O)c1ccc(F)cc1 [Example 109, N-((4aS,6S)-4a-(5-cyclopropylpicolinoyl)-1-(4-fluorophenyl)-4,4a,5,6,7,8-hexahydro-1H-benzo[f]indazol-6-yl)-N-ethyl-4-fluorobenzenesulfonamide] |
| ≤ 100 | Cn1ncc(S(=O)(=O)[C@H]2CCC3=Cc4c(cnn4-c4ccc(F)cc4)C[C@]3(C(=O)c3cc(C(F)(F)F)ccn3)C2)n1 [Example 33, ((4aS,6S)-1-(4-fluorophenyl)-6-((2-methyl-2H-1,2,3-triazol-4-yl)sulfonyl)-1,4,5,6,7,8-hexahydro-4aH-benzo[f]indazol-4a-yl)(4-(trifluoromethyl)pyridin-2-yl)methanone] |

Same assay, conditions: antagonist mode, 10 nM Dexamethasone

| IC50 [nM] | Structure (SMILES) |
| --- | --- |
| ≤ 100 | O=C(c1cc(F)ccn1)[C@]12Cc3cnn(-c4ccc(F)cc4)c3C=C1CC[C@H](N(CC(F)F)S(=O)(=O)c1ccc(Cl)nc1)C2 [Example 351, 6-chloro-N-(2,2-difluoroethyl)-N-((4aS,6S)-1-(4-fluorophenyl)-4a-(4-fluoropicolinoyl)-4,4a,5,6,7,8-hexahydro-1H-benzo[f]indazol-6-yl)pyridine-3-sulfonamide] |
| ≤ 100 | CC(C)N([C@H]1CCC2=Cc3c(cnn3-c3ccc(F)cc3)C[C@]2(C(=O)c2ncc(C(F)(F)F)s2)C1)S(=O)(=O)c1ccc(Cl)cc1 [Example 208, 4-chloro-N-((4aS,6S)-1-(4-fluorophenyl)-4a-(5-(trifluoromethyl)thiazole-2-carbonyl)-4,4a,5,6,7,8-hexahydro-1H-benzo[f]indazol-6-yl)-N-isopropylbenzenesulfonamide] |
| ≤ 100 | Cn1cc(S(=O)(=O)[C@H]2CCC3=Cc4c(cnn4-c4ccc(F)cc4)C[C@]3(C(=O)c3ncc(C(F)(F)F)s3)C2)cn1 [Example 190, ((4aS,6S)-1-(4-fluorophenyl)-6-((1-methyl-1H-pyrazol-4-yl)sulfonyl)-1,4,5,6,7,8-hexahydro-4aH-benzo[f]indazol-4a-yl)(5-(trifluoromethyl)thiazol-2-yl)methanone] |
| ≤ 100 | CCN([C@H]1CCC2=Cc3c(cnn3-c3ccc(F)cc3)C[C@]2(C(=O)c2nccs2)C1)S(=O)(=O)c1ccn(C)n1 [Example 167, N-ethyl-N-((4aS,6S)-1-(4-fluorophenyl)-4a-(thiazole-2-carbonyl)-4,4a,5,6,7,8-hexahydro-1H-benzo[f]indazol-6-yl)-1-methyl-1H-pyrazole-3-sulfonamide] |
| ≤ 100 | Cn1ccc(S(=O)(=O)CC2CCC3=Cc4c(cnn4-c4ccc(F)cc4)C[C@]3(C(=O)c3cc(F)ccn3)C2)n1 (stereo partly drawn) [Example 362, ((4aR)-1-(4-fluorophenyl)-6-(((1-methyl-1H-pyrazol-3-yl)sulfonyl)methyl)-1,4,5,6,7,8-hexahydro-4aH-benzo[f]indazol-4a-yl)(4-fluoropyridin-2-yl)methanone] |
| ≤ 100 | CC(C)CN([C@H]1CCC2=Cc3c(cnn3-c3ccc(F)cc3)C[C@]2(C(=O)c2cc(F)ccn2)C1)S(=O)(=O)c1ccn(C)n1 [Example 252, N-((4aS,6S)-1-(4-fluorophenyl)-4a-(4-fluoropicolinoyl)-4,4a,5,6,7,8-hexahydro-1H-benzo[f]indazol-6-yl)-N-isobutyl-1-methyl-1H-pyrazole-3-sulfonamide] |
| ≤ 100 | CCN([C@H]1CCC2=Cc3c(cnn3-c3ccc(F)cc3)C[C@]2(C(=O)c2nccs2)C1)S(=O)(=O)c1cnn(C(F)F)c1 [Example 165, 1-(difluoromethyl)-N-ethyl-N-((4aS,6S)-1-(4-fluorophenyl)-4a-(thiazole-2-carbonyl)-4,4a,5,6,7,8-hexahydro-1H-benzo[f]indazol-6-yl)-1H-pyrazole-4-sulfonamide] |
| ≤ 100 | Cn1ccc(S(=O)(=O)N(CCF)[C@H]2CCC3=Cc4c(cnn4-c4ccc(F)cc4)C[C@]3(C(=O)c3cc(Cl)ccn3)C2)n1 [Example 403, N-((4aS,6S)-4a-(4-chloropicolinoyl)-1-(4-fluorophenyl)-4,4a,5,6,7,8-hexahydro-1H-benzo[f]indazol-6-yl)-N-(2-fluoroethyl)-1-methyl-1H-pyrazole-3-sulfonamide] |
| ≤ 100 | Cn1cnc(S(=O)(=O)N(CC(F)(F)F)[C@H]2CCC3=Cc4c(cnn4-c4ccc(F)cc4)C[C@]3(C(=O)c3cc(C(F)(F)F)ccn3)C2)n1 [Example 378, N-((4aS,6S)-1-(4-fluorophenyl)-4a-(4-(trifluoromethyl)picolinoyl)-4,4a,5,6,7,8-hexahydro-1H-benzo[f]indazol-6-yl)-1-methyl-N-(2,2,2-trifluoroethyl)-1H-1,2,4-triazole-3-sulfonamide] |
| ≤ 100 | Cn1ccc(S(=O)(=O)N([C@H]2CCC3=Cc4c(cnn4-c4ccc(F)cc4)C[C@]3(C(=O)c3cc(F)ccn3)C2)[C@H]2C[C@@](C)(O)C2)n1 [Example 284, N-((4aS,6S)-1-(4-fluorophenyl)-4a-(4-fluoropicolinoyl)-4,4a,5,6,7,8-hexahydro-1H-benzo[f]indazol-6-yl)-N-((1s,3R)-3-hydroxy-3-methylcyclobutyl)-1-methyl-1H-pyrazole-3-sulfonamide] |
| 100 to 1000 | O=C(c1ccc(F)cc1)N(C1CC1)[C@H]1CCC2=Cc3c(cnn3-c3ccc(F)cc3)C[C@]2(C(=O)c2ncc(C(F)(F)F)s2)C1 [Example 291, N-cyclopropyl-4-fluoro-N-((4aS,6S)-1-(4-fluorophenyl)-4a-(5-(trifluoromethyl)thiazole-2-carbonyl)-4,4a,5,6,7,8-hexahydro-1H-benzo[f]indazol-6-yl)benzamide] |
